Literature values as cited in PubChem BioAssay AID1259409 (Chemical Carcinogenesis Research Information System (CCRIS), 2018).

Tested on: rodent chemically induced tumor inhibition, incidence and multiplicity
Assay: CCRIS tumor inhibitor studies
Details: Promoter: NONE; for outcome: Carcinogen: OCHRATOXIN A (303-47-9), Strain/Sex: LEWIS/FEMALE

Structure (SMILES): O=S(=O)(O)CCS
- tumour outcome (control, treated, inhibition, significance) (Carcinogen: 17BETA-ESTRADIOL, 50-28-2, Dose [Inhibitor]: 0, 0.05% IN DRINKING WATER 5 D/WK BEGINNING 5 D POST CARCINOGEN DOSE (STUDY DURATION: 7.5 MO), Route [Inhibitor]: ORAL, Species: HAMSTER, Strain/Sex: SYRIAN/MALE, Target Tissue: Type of Lesion: KIDNEY: TUMOR, Dose [Carcinogen]: 25 MG PELLET REPLACED WITH A SECOND PELLET AFTER 4 MO): 13/13 (100%), 15/19 (79%), 21%, not calculated
- tumour outcome (control, treated, inhibition, significance) (Carcinogen: CYCLOPHOSPHAMIDE, 50-18-0, Dose [Inhibitor]: 5 MG/KG BW IN DRINKING WATER 5/WK FOR 20 MO SIMULTANEOUSLY WITH CARCINOGEN TREATMENT (STUDY DURATION: 20 MO), Route [Inhibitor]: ORAL, Species: RAT, Strain/Sex: SPRAGUE-DAWLEY/MALE, Target Tissue: Type of Lesion: NERVOUS TISSUE: NEOPLASM, Dose [Carcinogen]: 2.5 MG/KG BW IN DRINKING WATER 5/WK FOR 20): 14%, 19%, -36%, not calculated
- tumour outcome (control, treated, inhibition, significance) (Carcinogen: CYCLOPHOSPHAMIDE, 50-18-0, Dose [Inhibitor]: 5 MG/KG BW IN DRINKING WATER 5/WK FOR 20 MO SIMULTANEOUSLY WITH CARCINOGEN TREATMENT (STUDY DURATION: 20 MO), Route [Inhibitor]: ORAL, Species: RAT, Strain/Sex: SPRAGUE-DAWLEY/MALE, Target Tissue: Type of Lesion: URINARY BLADDER: TUMOR, Dose [Carcinogen]: 2.5 MG/KG BW IN DRINKING WATER 5/WK FOR 20 MO): 30%, 22%, 27%, p>0.003*
- tumour outcome (control, treated, inhibition, significance) (Carcinogen: CYCLOPHOSPHAMIDE, 50-18-0, Dose [Inhibitor]: 5 MG/KG BW IN DRINKING WATER 5/WK FOR DURATION OF STUDY SIMULTANEOUSLY WITH CARCINOGEN TREATMENT (STUDY DURATION: LIFE), Route [Inhibitor]: ORAL, Species: RAT, Strain/Sex: SPRAGUE-DAWLEY/MALE, Target Tissue: Type of Lesion: URINARY BLADDER: PAPILLOMA, CARCINOMA, Dose [Carcinogen]: 2.5 MG/KG BW IN DRINKING WATER 5/WK FOR DURATION OF STUDY): 32/100 (32%), 12/50 (24%), 25%, not calculated
- tumour outcome (control, treated, inhibition, significance) (Carcinogen: CYCLOPHOSPHAMIDE, 50-18-0, Dose [Inhibitor]: 15 MG/KG BW IN DRINKING WATER 5/WK FOR 20 MO SIMULTANEOUSLY WITH CARCINOGEN TREATMENT (STUDY DURATION: 20 MO), Route [Inhibitor]: ORAL, Species: RAT, Strain/Sex: SPRAGUE-DAWLEY/MALE, Target Tissue: Type of Lesion: NERVOUS TISSUE: NEOPLASM, Dose [Carcinogen]: 2.5 MG/KG BW IN DRINKING WATER 5/WK FOR 20 MO): 14%, 24%, -71%, not calculated
- tumour outcome (control, treated, inhibition, significance) (Carcinogen: CYCLOPHOSPHAMIDE, 50-18-0, Dose [Inhibitor]: 15 MG/KG BW IN DRINKING WATER 5/WK FOR 20 MO SIMULTANEOUSLY WITH CARCINOGEN TREATMENT (STUDY DURATION: 20 MO), Route [Inhibitor]: ORAL, Species: RAT, Strain/Sex: SPRAGUE-DAWLEY/MALE, Target Tissue: Type of Lesion: URINARY BLADDER: TUMOR, Dose [Carcinogen]: 2.5 MG/KG BW IN DRINKING WATER 5/WK FOR 20 MO): 30%, 7%, 77%, p>0.003*
- tumour outcome (control, treated, inhibition, significance) (Carcinogen: CYCLOPHOSPHAMIDE, 50-18-0, Dose [Inhibitor]: 15 MG/KG BW IN DRINKING WATER 5/WK FOR DURATION OF STUDY SIMULTANEOUSLY WITH CARCINOGEN TREATMENT (STUDY DURATION: LIFE), Route [Inhibitor]: ORAL, Species: RAT, Strain/Sex: SPRAGUE-DAWLEY/MALE, Target Tissue: Type of Lesion: URINARY BLADDER: PAPILLOMA, CARCINOMA, Dose [Carcinogen]: 2.5 MG/KG BW IN DRINKING WATER 5/WK FOR DURATION OF STUDY): 32/100 (32%), 1/50 (2%), 94%, not calculated
- tumour outcome (control, treated, inhibition, significance) (Carcinogen: N-BUTYL-N(4-HYDROXYBUTYL)NITROSAMINE (3817-11-6), Dose [Inhibitor]: 0.05% IN DRINKING WATER FOR 15 WK (STUDY DURATION: 15 WK), Route [Inhibitor]: ORAL, Species: RAT, Strain/Sex: WISTAR/MALE, Target Tissue: Type of Lesion: URINARY BLADDER: PAPILLOMA, Dose [Carcinogen]: 0.025% IN DRINKING WATER FOR 15 WK): 38/40 (95%), 18/30 (60%), 37%, p< 0.01
- tumour outcome (control, treated, inhibition, significance) (Carcinogen: N-BUTYL-N(4-HYDROXYBUTYL)NITROSAMINE (3817-11-6), Dose [Inhibitor]: 0.05% IN DRINKING WATER FOR 15 WK (STUDY DURATION: 15 WK), Route [Inhibitor]: ORAL, Species: RAT, Strain/Sex: WISTAR/MALE, Target Tissue: Type of Lesion: URINARY BLADDER: TRANSITIONAL CELL CARCINOMA, Dose [Carcinogen]: 0.025% IN DRINKING WATER FOR 15 WK): 4/40 (10%), 1/30 (3%), 70%, not significant
- tumour outcome (control, treated, inhibition, significance) (Carcinogen: N-BUTYL-N-(4-HYDROXYBUTYL)NITROSAMINE, 3817-11-6, Dose [Inhibitor]: 350 MG/KG IN DRINKING WATER 5/WK FOR 39 WK SIMULTANEOUSLY WITH CARCINOGEN TREATMENT FOLLOWED BY OBSERVATION FOR LIFE (ST, Route [Inhibitor]: ORAL, Species: RAT, Strain/Sex: SPRAGUE-DAWLEY/MALE, Target Tissue: Type of Lesion: URINARY BLADDER: PAPILLOMATOUS CARCINOMA, TRANSITIONAL CELL CARCINOMA, Dose [Carcinogen]: 70 MG/KG 2/WK FOR 39 WK SIMULTANEOUSLY WITH AGENT TREATMENT): 96%, 91%, 5%, not significant
- outcome (Dose [Inhibitor]: 1 G/L IN DRINKING WATER FOR LIFETIME (STUDY DURATION: LIFETIME), Route [Inhibitor]: GAVAGE, Species: RAT, Target Tissue: Type of Lesion: URINARY BLADDER: TRANSITIONAL CELL CARCINOMA, Dose [Carcinogen]: 0.4 MG/KG BW 3X/WK FOR LIFETIME): 0/20 (0%), 0/20 (0%), 0%, not significant
- outcome (Dose [Inhibitor]: 1 G/L IN DRINKING WATER FOR LIFETIME (STUDY DURATION: LIFETIME), Route [Inhibitor]: GAVAGE, Species: RAT, Target Tissue: Type of Lesion: URINARY BLADDER: TRANSITIONAL CELL PAPILLOMA, Dose [Carcinogen]: 0.4 MG/KG BW 3X/WK FOR LIFETIME): 0/20 (0%), 0/20 (0%), 0%, not significant
- tumour outcome (control, treated, inhibition, significance) (Carcinogen: OCHRATOXIN A, 303-47-9, Dose [Inhibitor]: 1 G/L IN DRINKING WATER FOR LIFETIME (STUDY DURATION: LIFETIME), Route [Inhibitor]: GAVAGE, Species: RAT, Strain/Sex: DA/FEMALE, Target Tissue: Type of Lesion: URINARY BLADDER: TRANSITIONAL CELL PAPILLOMA, Dose [Carcinogen]: 0.4 MG/KG BW 3X/WK FOR LIFETIME): 2/40 (6%), 0/40 (0%), 100%, not significant
- tumour outcome (control, treated, inhibition, significance) (Carcinogen: OCHRATOXIN A, 303-47-9, Dose [Inhibitor]: 1 G/L IN DRINKING WATER FOR LIFETIME (STUDY DURATION: LIFETIME), Route [Inhibitor]: GAVAGE, Species: RAT, Strain/Sex: DA/MALE, Target Tissue: Type of Lesion: URINARY BLADDER: TRANSITIONAL CELL CARCINOMA, Dose [Carcinogen]: 0.4 MG/KG BW 3X/WK FOR LIFETIME): 2/20 (11%), 0/20 (0%), 100%, not significant
